# In patent US8703424B2, “Predicting human developmental toxicity of pharmaceuticals using human stem-like cells and metabolomics” (Stemina Biomarker Discovery, Inc., priority 2010, dated 2014):
# Experiments:
# WA09 hES cells = assay: Metabolomics of hES cells dosed in 96-well plates at three dose levels (Example 8); type: cell-based, human
# Protocol: For metabolomic analysis, hES cells were dosed at the three concentrations for each chemical compound based on the cell viability data. Media controls (no cells), dosed media controls (no cells with dosed media), and controls (cells with undosed media) were also included in the experimental design (FIG. 1). Spent media was collected following a three day dosing period. The collected media was immediately quenched in acetonitrile then stored at −80° C. until later analysis.
# In both the viability and metabolomics steps, 96-well plates were seeded with 250,000 cells/well of WA09 hES cells. These cells were “dosed” for three days. Each day for three days, the spent media was removed and replaced with […] media containing the designated compound. Each compound stock solution was made in DMSO and each final solution used to dose hES cells contained 0.1% DMSO. […]
# Samples were analyzed in both ESI positive and ESI negative modes on an Agilent QTOF instrument, operated in high resolution, extended dynamic range mode. […]
# Peak picking and feature creation were performed using the open source software library XCMS. Mass features (peaks) were detected using the centwave algorithm. […]
# This filter selects against spurious low abundance features at the level of detection that are not reproducibly measured, and features that may not have peak shapes amenable to reproducible detection and/or integration. […]
# [1] = test system: WA09 human embryonic stem (hES) cells; assay: PLS-DA prediction of teratogenicity from secretome of treated hES cells (Example 9)
# Description: These included 11 known teratogens and 11 known non-teratogens. The current model is based on the mean fold change (treatment versus its associated intra-experimental control) of 15 metabolites common among the secretome of hES cells treated with pharmaceutical agents and unknown chemical compounds.
# [2] = DevTox pharmaceutical, high dose (H = 10x circulating dose)
# [3] = DevTox pharmaceutical, low dose (L = 0.1x circulating dose)
# [4] = EPA compounds, high dose level (H)
# [5] = EPA compounds, low dose level (L)
# [6] = EPA compounds, medium dose level (M)
smiles,measurement,setting,value
CN(C)CCOC(C)(c1ccccc1)c1ccccn1 (stereo not drawn) [Doxylamine],Dimethylarginine (DMA) change,WA09 hES cells; at least two dose levels,increased secretion
same,Malic acid change,WA09 hES cells; high dose levels,extreme fold changes
same,PLS-DA classification,[1]; 0.38 μM,not classified as a teratogen
same,% Non (PLS-DA class probability non-teratogen),[1]; [2],0.38
same,% Ter (PLS-DA class probability teratogen),[1]; [2],0.62
same,Confidence (difference between class probabilities),[1]; [2],0.24
same,Prediction,[1]; [2],Ter
same,% Non (PLS-DA class probability non-teratogen),[1]; [3],0.58
same,% Ter (PLS-DA class probability teratogen),[1]; [3],0.42
same,Confidence (difference between class probabilities),[1]; [3],0.16
same,Prediction,[1]; [3],Non
same,% Non (PLS-DA generated class probability),[1]; [4],0.45
same,% Ter (PLS-DA generated class probability),[1]; [4],0.55
same,Prediction,[1]; [4],Ter
same,Confidence (difference between class probabilities),"[1]; EPA compounds, high dose level (H), values less than 0.1 inconclusive",0.1
same,% Non (PLS-DA generated class probability),[1]; [5],0.41
same,% Ter (PLS-DA generated class probability),[1]; [5],0.59
same,Prediction,[1]; [5],Ter
same,Confidence (difference between class probabilities),"[1]; EPA compounds, low dose level (L), values less than 0.1 inconclusive",0.18
same,% Non (PLS-DA generated class probability),[1]; [6],0.44
same,% Ter (PLS-DA generated class probability),[1]; [6],0.56
same,Prediction,[1]; [6],Ter
same,Confidence (difference between class probabilities),"[1]; EPA compounds, medium dose level (M), values less than 0.1 inconclusive",0.12
same,Teratogenicity Classification,"[1]; [Doxylamine] 0.038 μm, devTox low",Non
same,Teratogenicity Classification,"[1]; [Doxylamine] 0.38 μm, devTox medium",Non
same,Teratogenicity Classification,"[1]; [Doxylamine] 1 μm, EPA low",Ter
same,Teratogenicity Classification,"[1]; [Doxylamine] 3.8 μm, devTox high",Ter
same,Teratogenicity Classification,"[1]; [Doxylamine] 10 μm, EPA medium",Ter
same,Teratogenicity Classification,"[1]; [Doxylamine] 100 μm, EPA high",Ter
same,"PLS-DA classification, these studies (EPA set)","[1]; all three concentrations (low, medium, and high)",teratogen
same,"PLS-DA classification, developmental toxicity assay (Table 11)",[1]; high concentration,teratogen
same,"PLS-DA classification, developmental toxicity assay (Table 11)",[1]; low and medium dose,non-teratogen
same,PLS-DA classification of EPA-provided chemical agents,[1]; overall conclusion,potential teratogens
